From PubChem BioAssay (NCI) come the findings set out here.

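Step 1: Grow cells in 96-well plates. Step 2: Expose to compound for 48 hours at 5 concentrations. Step 3: Interpolate endpoints linearly; if unreached, use highest concentration. GI50: concentration for 50% inhibition of growth. Definition used: TGI = concentration required for complete inhibition of growth.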

Test systems include 786-0 renal; LOX IMVI melanoma; SK-MEL-2 melanoma; SK-MEL-5 melanoma; MDA-MB-231 breast; SN12C renal; SK-MEL-28 melanoma; SW-620 colon; OVCAR-3 ovarian; SF-268 CNS.
Common to all, as to test: DTP human tumour cell line panel, 48 h

As for `O=c1oc2ccc(Cl)cc2c(=O)n1-c1ccc(F)cc1F`, the GI50 in the assay on 786-0 renal is 3.07 µM; in the assay on LOX IMVI melanoma, 2.4 µM; in the assay with SK-MEL-2 melanoma it was 1.13 µM; in the assay on SK-MEL-5 melanoma it was 1.11 µM; in the assay on MDA-MB-231 breast, 2.06 µM; in the assay with SN12C renal it was 1.67 µM. Moreover, the GI50 with SK-MEL-28 melanoma was 1.52 µM; in the assay on SW-620 colon, 3.12 µM; in the assay with OVCAR-3 ovarian, 2.24 µM; with SF-268 CNS, 2.21 µM. The concentration for total growth inhibition (TGI) in the assay on 786-0 renal was 10.5 µM; in the assay with LOX IMVI melanoma, 12.1 µM; in the assay with SK-MEL-2 melanoma, 3.97 µM; with SK-MEL-5 melanoma it was 2.46 µM; in the assay on MDA-MB-231 breast it was 8.2 µM; in the assay on SN12C renal, 8.78 µM. Moreover, the total growth inhibition concentration (TGI) amounted to 10.5 µM in the assay with SK-MEL-28 melanoma, 16.9 µM in the assay on SW-620 colon, 18.2 µM with OVCAR-3 ovarian and 15.8 µM in the assay with SF-268 CNS.
On to `CC[C@]12C=CCN3CC[C@@]4(c5ccc(OC)cc5N(C)[C@H]4[C@@](O)(C(=O)OC)[C@@H]1OC(=O)CCC(=O)O[C@H]1CC[C@H]4[C@@H]5CC[C@H]6CC(=O)CC[C@]6(C)[C@H]5CC[C@]14C)[C@@H]32`, for which the GI50 was 1.97 µM with 786-0 renal; 2.83 µM in the assay with LOX IMVI melanoma; 2.49 µM in the assay with SK-MEL-2 melanoma; 1.65 µM with SK-MEL-5 melanoma; 3.03 µM in the assay with MDA-MB-231 breast; 2.88 µM with SN12C renal. Besides, the GI50 was 3.27 µM in the assay on SK-MEL-28 melanoma, 3.05 µM in the assay on SW-620 colon, 3.05 µM in the assay on OVCAR-3 ovarian and 4.81 µM with SF-268 CNS. Further, the TGI in the assay with 786-0 renal is above 100 µM; with LOX IMVI melanoma, 11.7 µM; with SK-MEL-2 melanoma, 6.18 µM; in the assay with SK-MEL-5 melanoma it was 4.03 µM; in the assay with MDA-MB-231 breast, 11.3 µM; in the assay with SN12C renal, 36.2 µM. For the same compound, the TGI was above 100 µM with SK-MEL-28 melanoma, 13.2 µM in the assay on SW-620 colon, above 100 µM in the assay on OVCAR-3 ovarian and above 100 µM with SF-268 CNS.
`COc1ccc2nc3c(cc2c1)C(=O)CC(c1ccccc1)C3` (stereo not given): the GI50 is 2.23 µM with 786-0 renal; 1.33 µM in the assay on LOX IMVI melanoma; 0.771 µM in the assay with SK-MEL-2 melanoma; 0.979 µM in the assay with SK-MEL-5 melanoma; 3 µM with MDA-MB-231 breast; 0.732 µM in the assay with SN12C renal. Further, the GI50 is 4.09 µM in the assay on SK-MEL-28 melanoma, 0.727 µM in the assay with SW-620 colon, 1.4 µM in the assay with OVCAR-3 ovarian and above 100 µM in the assay with SF-268 CNS. Also, the TGI in the assay with 786-0 renal was above 100 µM; with LOX IMVI melanoma it was above 100 µM; with SK-MEL-2 melanoma, above 100 µM; with SK-MEL-5 melanoma, 44.5 µM; in the assay with MDA-MB-231 breast, above 100 µM; in the assay on SN12C renal, above 100 µM. Moreover, the TGI was above 100 µM in the assay with SK-MEL-28 melanoma, above 100 µM with SW-620 colon, 10.4 µM with OVCAR-3 ovarian and above 100 µM with SF-268 CNS.
For the compound `Cc1ccc2[nH]c(O)c(N=Nc3ccccc3[N+](=O)[O-])c2c1`, the concentration for total growth inhibition (TGI) was 3.6 µM in the assay with 786-0 renal; above 100 µM with LOX IMVI melanoma; above 100 µM with SK-MEL-2 melanoma; above 100 µM in the assay with SK-MEL-5 melanoma; 6.03 µM with MDA-MB-231 breast; above 100 µM with SN12C renal. The TGI was above 100 µM in the assay on SK-MEL-28 melanoma, above 100 µM with SW-620 colon, 99.6 µM with OVCAR-3 ovarian and above 29.4 µM with SF-268 CNS.
In the case of `CN(/N=C/c1ccccc1O)c1ccc2ccccc2n1`, the TGI was 31.5 µM in the assay on 786-0 renal; above 100 µM with LOX IMVI melanoma; above 100 µM with SK-MEL-2 melanoma; above 100 µM with SK-MEL-5 melanoma; above 100 µM in the assay with MDA-MB-231 breast; above 100 µM with SN12C renal. Besides, the total growth inhibition concentration (TGI) was above 100 µM in the assay on SK-MEL-28 melanoma, above 100 µM in the assay on SW-620 colon, 34.7 µM with OVCAR-3 ovarian and 53.8 µM in the assay with SF-268 CNS.
With `COC(=O)C1=C(C(=O)ON)[C@@H]2C=C[C@@]1([C@@H](Cc1ccccc1)Nc1ccccc1)O2`, the GI50 in the assay with 786-0 renal is 1.85 µM; in the assay with LOX IMVI melanoma it was 1.5 µM; in the assay with SK-MEL-2 melanoma, 15.6 µM; in the assay on SK-MEL-5 melanoma, 14.7 µM; in the assay with MDA-MB-231 breast, 1.79 µM; with SN12C renal, 1.87 µM. Further, the GI50 is 1.93 µM in the assay on SK-MEL-28 melanoma, 1.8 µM with SW-620 colon, 1.57 µM in the assay on OVCAR-3 ovarian and 14 µM in the assay on SF-268 CNS. For the same compound, the total growth inhibition concentration (TGI) is 3.57 µM in the assay with 786-0 renal; 2.88 µM in the assay with LOX IMVI melanoma; 30 µM in the assay with SK-MEL-2 melanoma; 27.8 µM in the assay with SK-MEL-5 melanoma; 3.78 µM in the assay on MDA-MB-231 breast; 3.69 µM in the assay on SN12C renal. Further, the TGI came to 3.54 µM in the assay with SK-MEL-28 melanoma, 3.51 µM in the assay with SW-620 colon, 3 µM with OVCAR-3 ovarian and 28.5 µM in the assay with SF-268 CNS.
Turning to `C/C(CC(C)(C)N1CC1)=N\NC(=O)Nc1cccc2ccccc12`, the GI50 in the assay with 786-0 renal is 3.04 µM; in the assay on LOX IMVI melanoma it was 3.13 µM; in the assay on SK-MEL-2 melanoma, 2.24 µM; in the assay with SK-MEL-5 melanoma it was 3.19 µM; with MDA-MB-231 breast, 3.25 µM; in the assay on SN12C renal it was 5.76 µM. The GI50 with SK-MEL-28 melanoma is 7.07 µM; in the assay with SW-620 colon it was 2.89 µM; in the assay on OVCAR-3 ovarian it was 2.32 µM; in the assay on SF-268 CNS, 3.72 µM. Moreover, the concentration for total growth inhibition (TGI) with 786-0 renal was determined as 9.87 µM; with LOX IMVI melanoma, 13.3 µM; in the assay on SK-MEL-2 melanoma, 5.45 µM; in the assay with SK-MEL-5 melanoma it was 12.2 µM; with MDA-MB-231 breast, 9.42 µM; in the assay with SN12C renal it was 77.9 µM. The total growth inhibition concentration (TGI) in the assay on SK-MEL-28 melanoma was 19.8 µM; with SW-620 colon, 12.4 µM; with OVCAR-3 ovarian, 5.92 µM; with SF-268 CNS it was 16.2 µM.
For `Cc1ccc2[nH]c(C(=O)NN3C(=O)C(C)SC34CCC(C)CC4)c(-c3ccccc3)c2c1` (stereo not given), the GI50 with 786-0 renal was 19 µM; with LOX IMVI melanoma it was 18 µM; in the assay on SK-MEL-2 melanoma it was 17.8 µM; in the assay with SK-MEL-5 melanoma, 18.4 µM; in the assay with MDA-MB-231 breast it was 15.4 µM; in the assay with SN12C renal, 13 µM. Moreover, the GI50 in the assay with SK-MEL-28 melanoma is 17.8 µM; in the assay on SW-620 colon, 31.4 µM; with OVCAR-3 ovarian it was 11.8 µM; with SF-268 CNS, 14.9 µM. The concentration for total growth inhibition (TGI) in the assay on 786-0 renal was found to be 52.6 µM; in the assay on LOX IMVI melanoma, 34.8 µM; in the assay on SK-MEL-2 melanoma, 36.7 µM; with SK-MEL-5 melanoma, 36.3 µM; in the assay on MDA-MB-231 breast it was 31.6 µM; in the assay on SN12C renal, 28 µM. For the same compound, the total growth inhibition concentration (TGI) in the assay on SK-MEL-28 melanoma came out at 35.9 µM; in the assay on SW-620 colon it was 82.6 µM; in the assay with OVCAR-3 ovarian, 27.3 µM; in the assay on SF-268 CNS, 35.5 µM.
`O=S(=O)(O)n1ccnc1` (tested in a mixture with another compound): the TGI in the assay with 786-0 renal, in the assay with LOX IMVI melanoma, in the assay on SK-MEL-2 melanoma, in the assay on SK-MEL-5 melanoma, in the assay on MDA-MB-231 breast and in the assay with SN12C renal was above 100 µM in each case. The concentration for total growth inhibition (TGI) with SK-MEL-28 melanoma, with SW-620 colon, in the assay on OVCAR-3 ovarian and with SF-268 CNS was above 100 µM throughout.
`COc1ccc(C2CC(c3ccc(OC)cc3O)=NN2c2ccc(S(N)(=O)=O)cc2)cc1` (stereo not given): the GI50 in the assay with 786-0 renal is 18.4 µM; with LOX IMVI melanoma it was 14.1 µM; with SK-MEL-2 melanoma, 17.1 µM; in the assay with SK-MEL-5 melanoma, 14.9 µM; with MDA-MB-231 breast, 15.3 µM; in the assay with SN12C renal, 16.7 µM. The GI50 in the assay on SK-MEL-28 melanoma was 15 µM; in the assay with SW-620 colon it was 16 µM; in the assay with OVCAR-3 ovarian, 12.2 µM; in the assay with SF-268 CNS, 34.1 µM. Further, the concentration for total growth inhibition (TGI) in the assay with 786-0 renal is above 100 µM; in the assay on LOX IMVI melanoma, above 100 µM; in the assay on SK-MEL-2 melanoma, 85.9 µM; with SK-MEL-5 melanoma, above 100 µM; with MDA-MB-231 breast, above 100 µM; with SN12C renal it was above 100 µM. Moreover, the TGI with SK-MEL-28 melanoma, in the assay on SW-620 colon, with OVCAR-3 ovarian and in the assay with SF-268 CNS was above 100 µM throughout.
For the compound `O=C(Nc1n[nH]c2nc(-c3ccc(O)cc3)c(Br)cc12)C1CC1`, the GI50 is 4.55 µM in the assay on 786-0 renal; 1.75 µM in the assay on LOX IMVI melanoma; 3.07 µM with SK-MEL-2 melanoma; 0.607 µM in the assay on SK-MEL-5 melanoma; 5.52 µM in the assay with MDA-MB-231 breast; 3.41 µM in the assay on SN12C renal. For the same compound, the GI50 with SK-MEL-28 melanoma was 3.85 µM; with SW-620 colon it was 4.36 µM; in the assay on OVCAR-3 ovarian, 1.39 µM; in the assay with SF-268 CNS it was 4.74 µM. Also, the concentration for total growth inhibition (TGI) in the assay on 786-0 renal amounted to 14.3 µM; in the assay with LOX IMVI melanoma it was 13.1 µM; with SK-MEL-2 melanoma it was 7.17 µM; in the assay on SK-MEL-5 melanoma, 4.07 µM; with MDA-MB-231 breast it was 16.8 µM; in the assay with SN12C renal it was 20.1 µM. In addition, the TGI in the assay with SK-MEL-28 melanoma is 9.88 µM; in the assay on SW-620 colon, above 25 µM; in the assay with OVCAR-3 ovarian, 9.14 µM; in the assay with SF-268 CNS it was 16.5 µM.
On to `Cc1c[nH]c(=O)n(Cc2nnc(CCC(=O)c3nc4ccccc4[nH]3)o2)c1=O`, for which the GI50 was 1.98 µM in the assay with 786-0 renal; 0.439 µM in the assay with LOX IMVI melanoma; 0.887 µM in the assay on SK-MEL-2 melanoma; 0.33 µM in the assay with SK-MEL-5 melanoma; 0.671 µM in the assay on MDA-MB-231 breast; 1.12 µM with SN12C renal. Further, the GI50 with SK-MEL-28 melanoma was 0.533 µM; in the assay on SW-620 colon, 0.483 µM; in the assay with OVCAR-3 ovarian, 0.315 µM; in the assay on SF-268 CNS, 1.5 µM. Moreover, the total growth inhibition concentration (TGI) was 38.3 µM in the assay on 786-0 renal; above 100 µM with LOX IMVI melanoma; above 23.9 µM with SK-MEL-2 melanoma; 67.7 µM in the assay on SK-MEL-5 melanoma; above 53 µM with MDA-MB-231 breast; above 100 µM with SN12C renal. In addition, the concentration for total growth inhibition (TGI) in the assay with SK-MEL-28 melanoma is above 100 µM; in the assay on SW-620 colon it was above 100 µM; with OVCAR-3 ovarian it was 1.26 µM; in the assay on SF-268 CNS, above 100 µM.
